Laboratory results published in ChEMBL document CHEMBL4619814, “Identification and Development of 1,4-Diaryl-1,2,3-triazolo-Based Ureas as Novel FLT3 Inhibitors” (ACS Med Chem Lett, 2020).
Active and inactive are the calls of the source. No cut-off for these calls is given here.

Tests used:
[1] = molecular target: Macrophage colony-stimulating factor 1 receptor (Homo sapiens, UniProt P07333); assay: Binding affinity to recombinant human CSF1R (564 to 939 residues) expressed in bacterial expression system by Kinomescan method
Sequence of Macrophage colony-stimulating factor 1 receptor (P07333 whole entry, the tested form may be a part): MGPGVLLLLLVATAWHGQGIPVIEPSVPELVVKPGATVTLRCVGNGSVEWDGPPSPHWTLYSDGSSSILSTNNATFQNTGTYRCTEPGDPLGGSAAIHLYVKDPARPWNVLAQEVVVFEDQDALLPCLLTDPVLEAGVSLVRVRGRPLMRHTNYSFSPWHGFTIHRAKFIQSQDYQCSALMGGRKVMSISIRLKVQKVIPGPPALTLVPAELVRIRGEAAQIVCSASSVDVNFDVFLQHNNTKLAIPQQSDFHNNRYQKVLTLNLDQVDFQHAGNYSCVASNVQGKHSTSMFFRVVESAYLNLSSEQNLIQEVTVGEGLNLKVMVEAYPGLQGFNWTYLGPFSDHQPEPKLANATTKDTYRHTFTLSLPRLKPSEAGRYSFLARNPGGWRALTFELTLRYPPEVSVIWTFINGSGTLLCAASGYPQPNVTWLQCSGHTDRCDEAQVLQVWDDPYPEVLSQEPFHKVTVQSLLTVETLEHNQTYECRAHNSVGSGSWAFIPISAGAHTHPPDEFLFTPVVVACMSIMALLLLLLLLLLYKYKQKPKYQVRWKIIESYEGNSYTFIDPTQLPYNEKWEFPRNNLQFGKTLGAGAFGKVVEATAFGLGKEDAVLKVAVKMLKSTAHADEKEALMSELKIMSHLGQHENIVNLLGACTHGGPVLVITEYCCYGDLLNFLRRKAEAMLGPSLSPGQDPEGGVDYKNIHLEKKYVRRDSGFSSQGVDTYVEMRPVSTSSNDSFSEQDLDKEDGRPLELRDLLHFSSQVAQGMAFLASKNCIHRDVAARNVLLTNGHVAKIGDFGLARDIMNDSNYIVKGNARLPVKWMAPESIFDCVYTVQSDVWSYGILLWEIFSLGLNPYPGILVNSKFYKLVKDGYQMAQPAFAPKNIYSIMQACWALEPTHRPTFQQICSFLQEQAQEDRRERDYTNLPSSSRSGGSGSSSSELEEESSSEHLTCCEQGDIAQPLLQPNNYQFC

[2] = molecular target: Receptor-type tyrosine-protein kinase FLT3 (Homo sapiens, UniProt P36888, ITD)
Sequence of Receptor-type tyrosine-protein kinase FLT3 (Homo sapiens, UniProt P36888, ITD) (P36888 whole entry, looked up, stated change not applied): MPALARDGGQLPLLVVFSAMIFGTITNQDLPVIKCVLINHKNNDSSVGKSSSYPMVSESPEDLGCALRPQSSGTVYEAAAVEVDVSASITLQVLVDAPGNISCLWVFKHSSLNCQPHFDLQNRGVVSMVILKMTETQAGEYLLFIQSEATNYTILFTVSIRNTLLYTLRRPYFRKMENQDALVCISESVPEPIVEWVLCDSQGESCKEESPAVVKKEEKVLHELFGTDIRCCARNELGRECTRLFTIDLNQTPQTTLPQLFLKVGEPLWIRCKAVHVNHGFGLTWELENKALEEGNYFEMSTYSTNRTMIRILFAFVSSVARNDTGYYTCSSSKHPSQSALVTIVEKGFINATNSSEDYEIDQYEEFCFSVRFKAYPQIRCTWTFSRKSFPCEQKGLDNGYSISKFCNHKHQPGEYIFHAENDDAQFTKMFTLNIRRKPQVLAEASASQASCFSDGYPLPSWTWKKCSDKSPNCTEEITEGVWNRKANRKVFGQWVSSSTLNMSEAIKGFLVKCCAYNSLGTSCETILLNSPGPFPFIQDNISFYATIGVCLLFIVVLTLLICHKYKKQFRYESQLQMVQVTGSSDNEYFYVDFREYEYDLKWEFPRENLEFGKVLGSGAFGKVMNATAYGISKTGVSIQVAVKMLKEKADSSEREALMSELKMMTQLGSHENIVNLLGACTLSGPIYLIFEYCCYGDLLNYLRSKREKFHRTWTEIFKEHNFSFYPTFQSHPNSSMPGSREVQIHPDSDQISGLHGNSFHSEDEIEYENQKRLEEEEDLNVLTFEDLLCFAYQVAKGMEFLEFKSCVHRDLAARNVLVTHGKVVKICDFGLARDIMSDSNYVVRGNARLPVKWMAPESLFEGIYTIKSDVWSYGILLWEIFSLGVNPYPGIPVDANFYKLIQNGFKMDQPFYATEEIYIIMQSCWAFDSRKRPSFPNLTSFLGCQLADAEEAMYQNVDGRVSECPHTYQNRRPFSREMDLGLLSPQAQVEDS
Description: Binding affinity to recombinant human FLT3 ITD mutant expressed in bacterial expression system by Kinomescan method

[3] = molecular target: Receptor-type tyrosine-protein kinase FLT3 (Homo sapiens, UniProt P36888, F691L/ITD)
Sequence of Receptor-type tyrosine-protein kinase FLT3 (Homo sapiens, UniProt P36888, F691L/ITD) (P36888 whole entry, looked up, stated change not applied): as above
Description: Binding affinity to recombinant human FLT3 ITD/F691L double mutant expressed in bacterial expression system by Kinomescan method

[4] = tested on: Receptor-type tyrosine-protein kinase FLT3 (Homo sapiens), P36888 [UNDEFINED MUTATION]; assay: Inhibition of FLT3 ITD mutant expressed in human MV4-11 cells assessed as reduction in FLT3 phosphorylation at 0.8 to 500 nM incubated for 6 hrs by Western blot analysis; type: cell-based
Sequence of Receptor-type tyrosine-protein kinase FLT3 (Homo sapiens), P36888 [UNDEFINED MUTATION] (P36888 whole entry, looked up, change not shown): as the sequence (P36888 whole entry, looked up, stated change not applied) above

[5] = tested on: Receptor-type tyrosine-protein kinase FLT3 (Homo sapiens), P36888 [UNDEFINED MUTATION]; assay: Inhibition of FLT3 ITD mutant expressed in human MV4-11 cells assessed as reduction in STAT5 level at 4 nM incubated for 6 hrs by Western blot analysis; type: cell-based
[6] = tested on: Receptor-type tyrosine-protein kinase FLT3 (Homo sapiens), P36888 [UNDEFINED MUTATION]; assay: Inhibition of FLT3 ITD mutant expressed in human MV4-11 cells assessed as reduction in STAT5 level at > 20 nM incubated for 6 hrs by Western blot analysis relative to control; type: cell-based
MV4-11 [7] = assay: Induction of cell cycle arrest in human MV4-11 cells assessed as S phase at 4 nM incubated for 48 hrs by propidium iodide staining based flow cytometry analysis (reference value: 20.14 %); type: functional
MV4-11 [8] = assay: Induction of cell cycle arrest in human MV4-11 cells assessed as G2/M phase at 4 nM incubated for 48 hrs by propidium iodide staining based flow cytometry analysis (reference value: 24.88 %); type: functional
MV4-11 [9] = assay: Induction of cell cycle arrest in human MV4-11 cells assessed as G2/M phase at 20 nM incubated for 48 hrs by propidium iodide staining based flow cytometry analysis (reference value: 24.88 %); type: functional
MV4-11 [10] = assay: Induction of cell cycle arrest in human MV4-11 cells assessed as G0/G1 phase at 100 nM incubated for 48 hrs by propidium iodide staining based flow cytometry analysis (reference value: 54.82 %); type: functional
MV4-11 [11] = assay: Induction of apoptosis in human MV4-11 cells assessed as viable cells at 4 nM incubated for 48 hrs by annexin V and 7-AAD staining based flow cytometry analysis (reference value: 90.47 %); type: functional; details: MV4-11, 48 h, read-out: Activity
MV4-11 [12] = assay: Induction of apoptosis in human MV4-11 cells assessed as early apoptotic cells at 4 nM incubated for 48 hrs by annexin V and 7-AAD staining based flow cytometry analysis (reference value: 6.36 %); type: functional
MV4-11 [13] = assay: Induction of apoptosis in human MV4-11 cells assessed as necrotic cells at 4 nM incubated for 48 hrs by annexin V and 7-AAD staining based flow cytometry analysis (reference value: 0.91 %); type: functional
MV4-11 [14] = assay: Induction of apoptosis in human MV4-11 cells assessed as viable cells at 20 nM incubated for 48 hrs by annexin V and 7-AAD staining based flow cytometry analysis (reference value: 90.47 %); type: functional; details: MV4-11, 48 h, read-out: Activity
MV4-11 [15] = assay: Induction of apoptosis in human MV4-11 cells assessed as late apoptotic cells at 20 nM incubated for 48 hrs by annexin V and 7-AAD staining based flow cytometry analysis (reference value: 2.25 %); type: functional
MV4-11 [16] = assay: Induction of apoptosis in human MV4-11 cells assessed as necrotic cells at 20 nM incubated for 48 hrs by annexin V and 7-AAD staining based flow cytometry analysis (reference value: 0.91 %); type: functional
MV4-11 [17] = assay: Induction of apoptosis in human MV4-11 cells assessed as late apoptotic cells at 100 nM incubated for 48 hrs by annexin V and 7-AAD staining based flow cytometry analysis (reference value: 2.25 %); type: functional
MV4-11 [18] = assay: Induction of cell cycle arrest in human MV4-11 cells assessed as reduction in CDK2 expression at 0.16 to 100 nM by Western blot analysis; type: functional, cell-based
MV4-11 [19] = assay: Induction of cell cycle arrest in human MV4-11 cells assessed as reduction in Cyclin E expression at 0.16 to 100 nM by Western blot analysis; type: functional, cell-based
MV4-11 [20] = assay: Induction of apoptosis in human MV4-11 cells assessed as increase in Caspase-9 cleavage at 0.16 to 100 nM by Western blot analysis; type: functional, cell-based
[21] = AUC in Sprague-Dawley rat at 5 mg/kg, iv; type: ADME, organism-based; details: in vivo
[22] = Cmax in Sprague-Dawley rat at 5 mg/kg, iv; type: ADME, organism-based; parameters: dose 5 mg/kg, route intravenous; details: in vivo
[23] = Cmax in Sprague-Dawley rat at 25 mg/kg, po; type: ADME, organism-based; parameters: dose 25 mg/kg, route oral; details: in vivo
[24] = Half life in Sprague-Dawley rat at 25 mg/kg, po; type: ADME, organism-based; details: in vivo
[25] = Clearance in Sprague-Dawley rat at 25 mg/kg, po; type: ADME, organism-based; details: in vivo
[26] = Toxicity in CB17-SCID mouse xenografted with human MV4-11 cells assessed as side effects at 10 to 40 mg/kg, po administered for 10 days and observed on day 10; type: organism-based; details: in vivo, 240 h
[27] = molecular target: Platelet-derived growth factor receptor beta (Homo sapiens, UniProt P09619)
Sequence of Platelet-derived growth factor receptor beta (P09619 whole entry): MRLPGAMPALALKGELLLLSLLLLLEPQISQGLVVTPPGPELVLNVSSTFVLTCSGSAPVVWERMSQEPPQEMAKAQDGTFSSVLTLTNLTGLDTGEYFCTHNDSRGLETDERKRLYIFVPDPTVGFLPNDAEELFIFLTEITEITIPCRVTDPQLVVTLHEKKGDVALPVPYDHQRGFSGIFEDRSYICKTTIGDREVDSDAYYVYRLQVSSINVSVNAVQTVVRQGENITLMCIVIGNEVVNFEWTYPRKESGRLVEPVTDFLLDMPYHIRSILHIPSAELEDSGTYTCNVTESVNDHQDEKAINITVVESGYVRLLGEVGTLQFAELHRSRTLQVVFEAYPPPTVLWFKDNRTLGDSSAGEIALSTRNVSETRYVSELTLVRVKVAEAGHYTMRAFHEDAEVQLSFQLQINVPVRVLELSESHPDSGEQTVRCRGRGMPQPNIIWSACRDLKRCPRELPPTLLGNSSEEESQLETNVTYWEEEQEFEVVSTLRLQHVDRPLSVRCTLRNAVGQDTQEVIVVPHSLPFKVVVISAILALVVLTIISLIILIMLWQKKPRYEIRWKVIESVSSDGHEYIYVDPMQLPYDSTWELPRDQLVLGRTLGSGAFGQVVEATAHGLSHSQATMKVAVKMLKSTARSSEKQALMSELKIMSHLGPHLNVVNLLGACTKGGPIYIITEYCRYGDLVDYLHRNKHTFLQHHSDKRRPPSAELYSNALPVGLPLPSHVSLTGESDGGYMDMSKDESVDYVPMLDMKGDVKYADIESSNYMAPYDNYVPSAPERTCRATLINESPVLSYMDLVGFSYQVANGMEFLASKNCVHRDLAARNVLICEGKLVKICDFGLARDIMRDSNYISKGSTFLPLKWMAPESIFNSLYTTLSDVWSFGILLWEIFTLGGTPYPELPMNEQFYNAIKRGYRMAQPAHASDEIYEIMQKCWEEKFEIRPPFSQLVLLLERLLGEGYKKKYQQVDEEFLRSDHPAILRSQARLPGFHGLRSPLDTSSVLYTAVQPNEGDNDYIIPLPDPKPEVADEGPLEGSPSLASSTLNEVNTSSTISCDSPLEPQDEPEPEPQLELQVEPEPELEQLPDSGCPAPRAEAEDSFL
Description: Binding affinity to recombinant human PDGFRB (582 to 1009 residues) expressed in bacterial expression system by Kinomescan method

[28] = tested on: Receptor-type tyrosine-protein kinase FLT3 (Homo sapiens), P36888 [UNDEFINED MUTATION]; details: MV4-11
Description: Inhibition of FLT3 ITD mutant expressed in human MV4-11 cells assessed as reduction in cell growth incubated for 72 hrs by CCK8 assay

KG-1 = assay: cells; details: Homo sapiens, KG-1, 72 h
Description: Cytotoxicity against human KG1 cells assessed as reduction in cell viability incubated for 72 hrs by CCK8 assay

HL-60 = assay: cells; details: Homo sapiens, HL-60, 72 h
Description: Cytotoxicity against human HL60 cells assessed as reduction in cell viability incubated for 72 hrs by CCK8 assay

CC(C)(C)c1cc(NC(=O)Nc2ccc(-c3cn(-c4ccc(OCCN5CCOCC5)cc4Cl)nn3)cc2)no1
Kd [1]: 100 nM | Kd [2]: 6.9 nM | Kd [3]: 2400 nM | inhibition [4]: Active | inhibition [5]: Active | inhibition [6]: 100% | Activity (MV4-11 [7]): 15.39% | Activity (MV4-11 [8]): 18.42% | Activity (MV4-11 [9]): 6.53% | Activity (MV4-11 [10]): 89.92% | viability at 0.004 µM (MV4-11 [11]): 88.7% | Activity (MV4-11 [12]): 7.51% | Activity (MV4-11 [13]): 1.15% | viability at 0.02 µM (MV4-11 [14]): 84% | Activity (MV4-11 [15]): 4.31% | Activity (MV4-11 [16]): 1.09% | Activity (MV4-11 [17]): 12.1% | Activity (MV4-11 [18]): Active | Activity (MV4-11 [19]): Active | Activity (MV4-11 [20]): Active | AUC [21]: 21200 ng·h/mL | Cmax [22]: 6850 ng/mL | Cmax [23]: 3220 ng/mL | half-life [24]: 6.77 h | CL/F [25]: 10.6 mL/min/kg | Activity [26]: Non-Toxic | Kd [27]: 8.1 nM | GI50 [28]: 3 nM | GI50 (KG-1): > 3000 nM | GI50 (HL-60): > 3000 nM
